Test results from patent US10485235B2, “Aryloxypyrimidinyl ethers as herbicides” (FMC Corporation, priority 2015, dated 2019).

Experiments:
Type in all cases: in vivo
[1] = test system: barnyardgrass (Echinochloa crus-galli); experiment: Test A preemergence, barnyardgrass; conditions: Preemergence, 0 to 100 scale (0 no effect, 100 complete control)
Outline: (§1)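 Pre- and postemergence greenhouse screen in loam–sand soil. Test chemicals were delivered in a non-phytotoxic solvent with surfactant, preemergence as a directed spray onto seeded soil and postemergence onto 2–10 cm seedlings. Injury was judged by eye after ~10 days on a 0–100 scale.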

[2] = test system: kochia (Kochia scoparia); experiment: Test A preemergence, kochia; conditions: Preemergence, 0 to 100 scale (0 no effect, 100 complete control)
Outline: as §1

[3] = test system: ragweed (common ragweed, Ambrosia elatior); experiment: Test A preemergence, ragweed; conditions: Preemergence, 0 to 100 scale (0 no effect, 100 complete control)
Outline: as §1

[4] = test system: ryegrass, Italian (Italian ryegrass, Lolium multiflorum); experiment: Test A preemergence, Italian ryegrass; conditions: Preemergence, 0 to 100 scale (0 no effect, 100 complete control)
Outline: as §1

[5] = test system: foxtail, giant (giant foxtail, Setaria faberii); experiment: Test A preemergence, giant foxtail; conditions: Preemergence, 0 to 100 scale (0 no effect, 100 complete control)
Outline: as §1

[6] = test system: pigweed (Amaranthus retroflexus); experiment: Test A preemergence, pigweed; conditions: Preemergence, 0 to 100 scale (0 no effect, 100 complete control)
Outline: as §1

[7] = test system: barnyardgrass (Echinochloa crus-galli); experiment: Test A postemergence, barnyardgrass; conditions: postemergence, 0 to 100 scale, 0 is no effect, 100 is complete control, approximately 10 days
Outline: as §1

[8] = test system: kochia (Kochia scoparia); experiment: Test A postemergence, kochia; conditions: postemergence, 0 to 100 scale, 0 is no effect, 100 is complete control, approximately 10 days
Outline: as §1

[9] = test system: ragweed (common ragweed, Ambrosia elatior); experiment: Test A postemergence, ragweed; conditions: postemergence, 0 to 100 scale, 0 is no effect, 100 is complete control, approximately 10 days
Outline: as §1

[10] = test system: ryegrass, Italian (Italian ryegrass, Lolium multiflorum); experiment: Test A postemergence, Italian ryegrass; conditions: postemergence, 0 to 100 scale, 0 is no effect, 100 is complete control, approximately 10 days
Outline: as §1

[11] = test system: foxtail, giant (giant foxtail, Setaria faberii); experiment: Test A postemergence, giant foxtail; conditions: postemergence, 0 to 100 scale, 0 is no effect, 100 is complete control, approximately 10 days
Outline: as §1

[12] = test system: pigweed (Amaranthus retroflexus); experiment: Test A postemergence, pigweed; conditions: postemergence, 0 to 100 scale, 0 is no effect, 100 is complete control, approximately 10 days
Outline: as §1

[13] = test system: wheat (Triticum aestivum); experiment: Test A postemergence, wheat; conditions: postemergence, 0 to 100 scale, 0 is no effect, 100 is complete control, approximately 10 days
Outline: as §1

[14] = test system: corn (Zea mays); experiment: Test A postemergence, corn; conditions: postemergence, 0 to 100 scale, 0 is no effect, 100 is complete control, approximately 10 days
Outline: as §1

[15] = test system: blackgrass (Alopecurus myosuroides); experiment: Test A postemergence, blackgrass; conditions: postemergence, 0 to 100 scale, 0 is no effect, 100 is complete control, approximately 10 days
Outline: as §1

[16] = test system: galium (catchweed bedstraw, Galium aparine); experiment: Test A postemergence, galium; conditions: postemergence, 0 to 100 scale, 0 is no effect, 100 is complete control, approximately 10 days
Outline: as §1

[17] = test system: rice (Oryza sativa); experiment: Test B flooded paddy test, rice; conditions: 250 g ai/ha, Flood; visual rating after 13 to 15 days; scale 0 to 100, 0 is no effect, 100 is complete control
Outline: (§2)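 Plants grown to 2-leaf stage, pots flooded to 3 cm above soil and compound applied directly to paddy water, depth maintained throughout. After 13-15 days in greenhouse, visual rating against untreated controls on 0-100 scale (0 no effect, 100 complete control).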

[18] = test system: sedge, umbrella (small-flower umbrella sedge, Cyperus difformis); experiment: Test B flooded paddy test, umbrella sedge; conditions: 250 g ai/ha, Flood; visual rating after 13 to 15 days; scale 0 to 100, 0 is no effect, 100 is complete control
Outline: as §2

[19] = test system: ducksalad (Heteranthera limosa); experiment: Test B flooded paddy test, ducksalad; conditions: 250 g ai/ha, Flood; visual rating after 13 to 15 days; scale 0 to 100, 0 is no effect, 100 is complete control
Outline: as §2

[20] = test system: barnyardgrass (Echinochloa crus-galli); experiment: Test B flooded paddy test, barnyardgrass; conditions: 250 g ai/ha, Flood; visual rating after 13 to 15 days; scale 0 to 100, 0 is no effect, 100 is complete control
Outline: as §2

Compound | Plant response rating, Barnyardgrass ([1]; 125 g ai/ha) | Plant response rating, Kochia ([2]; 125 g ai/ha) | Plant response rating, Ragweed ([3]; 125 g ai/ha) | Plant response rating, Ryegrass, Italian ([4]; 125 g ai/ha) | Plant response rating, Foxtail, Giant ([5]; 125 g ai/ha) | Plant response rating, Pigweed ([6]; 125 g ai/ha) | Plant response rating, Barnyardgrass ([7]; 125 g ai/ha) | Plant response rating, Kochia ([8]; 125 g ai/ha) | Plant response rating, Ragweed ([9]; 125 g ai/ha) | Plant response rating, Ryegrass, Italian ([10]; 125 g ai/ha) | Plant response rating, Foxtail, Giant ([11]; 125 g ai/ha) | Plant response rating, Pigweed ([12]; 125 g ai/ha) | Plant response rating, Wheat ([13]; 125 g ai/ha) | Plant response rating, Corn ([14]; 125 g ai/ha) | Plant response rating, Blackgrass ([15]; 125 g ai/ha) | Plant response rating, Galium ([16]; 125 g ai/ha) | Plant response rating, Rice [17] | Plant response rating, Sedge, Umbrella [18] | Plant response rating, Ducksalad [19] | Plant response rating, Barnyardgrass [20] | further results
N#Cc1cccc(Oc2ncc(F)cn2)c1OCCC(F)(F)F [Compound 40] | 80 | 100 | 90 | 10 | 90 | 100 | 50 | 70 | 10 | 10 | 80 | 90 | 0 | 20 | 30 | 60 | 0 | 70 | 75 | 0 | Plant response rating, Barnyardgrass ([1]; 31 g ai/ha): 30; Plant response rating, Kochia ([2]; 31 g ai/ha): 90; Plant response rating, Ragweed ([3]; 31 g ai/ha): 10; Plant response rating, Ryegrass, Italian ([4]; 31 g ai/ha): 0; Plant response rating, Foxtail, Giant ([5]; 31 g ai/ha): 70; Plant response rating, Pigweed ([6]; 31 g ai/ha): 100; Plant response rating, Barnyardgrass ([7]; 31 g ai/ha): 0; Plant response rating, Kochia ([8]; 31 g ai/ha): 50; Plant response rating, Ragweed ([9]; 31 g ai/ha): 0; Plant response rating, Ryegrass, Italian ([10]; 31 g ai/ha): 0; Plant response rating, Foxtail, Giant ([11]; 31 g ai/ha): 10; Plant response rating, Pigweed ([12]; 31 g ai/ha): 80; Plant response rating, Wheat ([13]; 31 g ai/ha): 0; Plant response rating, Corn ([14]; 31 g ai/ha): 10; Plant response rating, Blackgrass ([15]; 31 g ai/ha): 10; Plant response rating, Galium ([16]; 31 g ai/ha): 20
N#Cc1cccc(Oc2ncc(Cl)cn2)c1OCC(F)F [Compound 16] | 80 | 100 | 60 | 10 | 100 | 100 | 20 | 100 | 10 | 0 | 30 | 90 | 0 | 20 | 10 | 30 | 0 | 0 | 30 | 0 | Plant response rating, Barnyardgrass ([1]; 500 g ai/ha): 100; Plant response rating, Kochia ([2]; 500 g ai/ha): 100; Plant response rating, Ragweed ([3]; 500 g ai/ha): 90; Plant response rating, Ryegrass, Italian ([4]; 500 g ai/ha): 40; Plant response rating, Foxtail, Giant ([5]; 500 g ai/ha): 100; Plant response rating, Pigweed ([6]; 500 g ai/ha): 100; Plant response rating, Barnyardgrass ([7]; 500 g ai/ha): 90; Plant response rating, Kochia ([8]; 500 g ai/ha): 100; Plant response rating, Ragweed ([9]; 500 g ai/ha): 60; Plant response rating, Ryegrass, Italian ([10]; 500 g ai/ha): 80; Plant response rating, Foxtail, Giant ([11]; 500 g ai/ha): 100; Plant response rating, Pigweed ([12]; 500 g ai/ha): 100; Plant response rating, Wheat ([13]; 500 g ai/ha): 20; Plant response rating, Corn ([14]; 500 g ai/ha): 70; Plant response rating, Blackgrass ([15]; 500 g ai/ha): 90; Plant response rating, Galium ([16]; 500 g ai/ha): 90
N#Cc1cccc(Oc2ncc(F)cn2)c1OC/C=C/C(F)(F)F [Compound 39] | 100 | 100 | 10 | 20 | 100 | 100 | 40 | 90 | 10 | 50 | 90 | 100 | 20 | 50 | 60 | 60 | 15 | 100 | 65 | 30 | Plant response rating, Barnyardgrass ([1]; 31 g ai/ha): 50; Plant response rating, Kochia ([2]; 31 g ai/ha): 60; Plant response rating, Ragweed ([3]; 31 g ai/ha): 0; Plant response rating, Ryegrass, Italian ([4]; 31 g ai/ha): 0; Plant response rating, Foxtail, Giant ([5]; 31 g ai/ha): 90; Plant response rating, Pigweed ([6]; 31 g ai/ha): 100; Plant response rating, Barnyardgrass ([7]; 31 g ai/ha): 20; Plant response rating, Kochia ([8]; 31 g ai/ha): 90; Plant response rating, Ragweed ([9]; 31 g ai/ha): 0; Plant response rating, Ryegrass, Italian ([10]; 31 g ai/ha): 0; Plant response rating, Foxtail, Giant ([11]; 31 g ai/ha): 20; Plant response rating, Pigweed ([12]; 31 g ai/ha): 90; Plant response rating, Wheat ([13]; 31 g ai/ha): 0; Plant response rating, Corn ([14]; 31 g ai/ha): 20; Plant response rating, Blackgrass ([15]; 31 g ai/ha): 10; Plant response rating, Galium ([16]; 31 g ai/ha): 20
